# From patent US12577217B2, “15-PGDH inhibitor” (KYORIN Pharmaceutical Co., Ltd., priority 2019, dated 2026)
# Biological target: T1, recombinant human 15-PGDH (Homo sapiens, UniProt P15428)
# T1 construct: purchased R&D Systems
# T1 sequence (P15428 1-266): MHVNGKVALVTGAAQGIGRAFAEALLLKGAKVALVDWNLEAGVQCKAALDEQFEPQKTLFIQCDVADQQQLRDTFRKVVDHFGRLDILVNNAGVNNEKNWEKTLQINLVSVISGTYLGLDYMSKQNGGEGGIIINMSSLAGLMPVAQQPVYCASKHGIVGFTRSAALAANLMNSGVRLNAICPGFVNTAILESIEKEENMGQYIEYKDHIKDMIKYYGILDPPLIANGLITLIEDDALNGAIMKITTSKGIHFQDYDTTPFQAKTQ
# Assay: 15-PGDH enzyme inhibition test
# Format: biochemical
# Conditions: 4 nM recombinant human 15-PGDH, 30 μM PGE2, 1 mM NAD+, 60 minutes after starting the reaction; read-out: IC50 Value
# Description: 15-PGDH Enzyme Inhibition Test
# A test compound and 4 nM recombinant human 15-PGDH (R&D Systems) were added, in 50 mM Tris-HCl (pH 8.0) containing 0.01% TWEEN 20 (Sigma) and 0.01% bovine gamma globulin (Sigma), to a 384-well Flat Bottom Black plate (Corning, 3820), and the resultant was allowed to stand still at room temperature for 12 minutes, and 30 μM PGE2 (Cayman Chemical) and 1 mM NAD+ (Sigma) were added thereto to start the reaction. 60 minutes after starting the reaction, measurement was performed using Synergy 2 (BioTeck) at an excitation wavelength of 340 nm and a fluorescence wavelength of 440 nm. Assuming that a fluorescence signal obtained with an assay buffer added instead of the test compound and NAD+ was 100% and that a signal obtained with NAD+ added was 0%, a concentration corresponding to 50% inhibition plotted on a concentration-reaction curve of the test compound was defined as an IC50 value. Incidentally, in the following tables, an IC50 value smaller than 10 nM was shown as +++, an IC50 value equal to or larger than 10 nM and smaller than 100 nM was shown as ++, and an IC50 value equal to or larger than 100 nM was shown as +.
row,Compound,IC50
1,CN1Cc2cc(N3CCCc4cc(C(=O)N5CCC(F)(F)CC5)cnc43)ncc2C1=O [Example 1-85],10 to 100 nM
2,COCCN1Cc2cc(N3CCCc4cc(C(=O)N5CCC(F)(F)CC5)cnc43)ncc2C1=O [Example 1-86],10 to 100 nM
3,COC(=O)c1cn(C)c2cc(N3CCOc4cc(C(=O)N5CCCCC5)cnc43)ccc12 [Example 1-90],10 to 100 nM
4,Cn1ccc2ccc(N3CCOc4cc(C(=O)N5CCCCC5)cnc43)cc21 [Example 1-91],10 to 100 nM
5,Cn1nc2cc(N3CCCCOc4cc(C(=O)N5CCCCC5)cnc43)ccn2c1=O [Example 1-98],10 to 100 nM
6,CN1Cc2nc(N3CCOc4cc(C(=O)N5CCCCC5)cnc43)ccc2C1=O [Example 1-102],10 to 100 nM
7,Cn1nc2cc(N3CCOCc4cc(C(=O)N5CCCCC5)cnc43)ccn2c1=O [Example 1-108],10 to 100 nM
8,CCOCCn1nc2cc(N3CCCc4cc(C(=O)N5CCC[C@H](CF)C5)cnc43)ccn2c1=O [Example 1-117],< 10 nM
9,COCCOCCn1nc2cc(N3CCCc4cc(C(=O)N5CCC[C@H](CF)C5)cnc43)ccn2c1=O [Example 1-118],< 10 nM
10,Cn1nc2cc(N3CCCc4cc(C(=O)N5CCC[C@@H](CF)C5)cnc43)ccn2c1=O [Example 1-119],< 10 nM
11,CCn1nc2cc(N3CCCc4cc(C(=O)N5CCC[C@@H](CF)C5)cnc43)ccn2c1=O [Example 1-120],< 10 nM
12,COCn1nc2cc(N3CCCc4cc(C(=O)N5CCC[C@@H](CF)C5)cnc43)ccn2c1=O [Example 1-121],< 10 nM
13,CCOCn1nc2cc(N3CCCc4cc(C(=O)N5CCC[C@@H](CF)C5)cnc43)ccn2c1=O [Example 1-122],< 10 nM
14,COCCn1nc2cc(N3CCCc4cc(C(=O)N5CCC[C@@H](CF)C5)cnc43)ccn2c1=O [Example 1-123],< 10 nM
15,CCOCCn1nc2cc(N3CCCc4cc(C(=O)N5CCC[C@@H](CF)C5)cnc43)ccn2c1=O [Example 1-124],< 10 nM
16,COCCOCCn1nc2cc(N3CCCc4cc(C(=O)N5CCC[C@@H](CF)C5)cnc43)ccn2c1=O [Example 1-125],< 10 nM
17,CCN1Cc2cc(N3CCCc4cc(C(=O)N5CCC(F)(F)CC5)cnc43)ccc2C1=O [Example 1-126],< 10 nM
18,CN1Cc2cc(N3CCOc4cc(C(=O)N5CCC(F)(F)CC5)cnc43)ccc2C1=O [Example 1-127],< 10 nM
19,O=C(c1cnc2c(c1)OCCN2c1ccc2c(=O)[nH]ccc2c1)N1CCC(F)(F)CC1 [Example 1-128],< 10 nM

row,Compound,IC50
1,Cn1nc2cc(N3CCCc4cc(C(=O)N5CCC(F)(F)CC5)cnc43)ccn2c1=O [Example 1-129],< 10 nM
2,Cn1nc2cc(N3CCCc4cc(C(=O)N5CCCCC5)ccc43)ccn2c1=O [Example 1-130],< 10 nM
3,COC(=O)c1ccc(N2CCCc3cc(C(=O)N4CCCCC4)ccc32)cc1 [Example 1-131],< 10 nM
4,Cn1nc2cc(N3CCOc4cc(C(=O)C5CCC(F)(F)CC5)cnc43)ccn2c1=O [Example 1-132],< 10 nM
5,CN1Cc2cc(N3CCOc4cc(C(=O)C5CCC(F)(F)CC5)cnc43)ccc2C1=O [Example 1-133],< 10 nM
6,CN1Cc2cc(N3CCOc4cc(C(=O)C5CCCCC5)cnc43)ccc2C1=O [Example 1-134],< 10 nM
7,Cn1nc2cc(N3CCCc4cc(SC5CCCCC5)cnc43)ccn2c1=O [Example 1-135],10 to 100 nM
8,CN1Cc2cc(N3CCOc4cc(SC5CCCCC5)cnc43)ccc2C1=O [Example 1-136],10 to 100 nM
9,COC(=O)c1ccccc1N1CCOc2cc(C(=O)N3CCCCC3)ccc21 [Example 1-137],> 100 nM
10,COC(=O)c1ccccc1N1CCc2cc(C(=O)N3CCCCC3)ccc21 [Example 1-138],> 100 nM
11,COC(=O)c1cccc(N2CCc3cc(C(=O)N4CCCCC4)ccc32)c1 [Example 1-139],< 10 nM
12,COC(=O)c1ccc(N2CCc3cc(C(=O)N4CCCCC4)ccc32)cc1 [Example 1-140],< 10 nM
13,Cn1nc2cc(N3CCc4cc(C(=O)N5CCCCC5)ccc43)ccn2c1=O [Example 1-141],< 10 nM
14,O=C(c1cnc2c(c1)CCCN2c1ccn2c(=O)[nH]nc2c1)N1CCC[C@H](CF)C1 [Example 1-145],< 10 nM
15,O=C(c1cnc2c(c1)CCCN2c1ccn2c(=O)[nH]nc2c1)N1CCC[C@@H](CF)C1 [Example 1-146],< 10 nM
16,Cn1nc2cc(N3CCOc4cc(C(=O)N5CCC(F)(F)CC5)ccc43)ccn2c1=O [Example 1-147],< 10 nM
17,O=C(c1ccc2c(c1)OCCN2c1ccn2c(=O)[nH]nc2c1)N1CCC(F)(F)CC1 [Example 1-148],< 10 nM
18,CN1Cc2cc(N3CCOc4cc(C(=O)N5CCC(F)(F)CC5)ccc43)ccc2C1=O [Example 1-149],< 10 nM

# Continued, values first:
row,IC50,Compound
1,< 10 nM,CCn1nc2cc(N3CCCc4cc(C(=O)N5CCC(F)(F)CC5)cnc43)ccn2c1=O [Example 1-75]
2,< 10 nM,COCn1nc2cc(N3CCCc4cc(C(=O)N5CCC(F)(F)CC5)cnc43)ccn2c1=O [Example 1-76]
3,< 10 nM,CCOCn1nc2cc(N3CCCc4cc(C(=O)N5CCC(F)(F)CC5)cnc43)ccn2c1=O [Example 1-77]
4,< 10 nM,COCCn1nc2cc(N3CCCc4cc(C(=O)N5CCC(F)(F)CC5)cnc43)ccn2c1=O [Example 1-78]
5,< 10 nM,CCOCCn1nc2cc(N3CCCc4cc(C(=O)N5CCC(F)(F)CC5)cnc43)ccn2c1=O [Example 1-79]
6,< 10 nM,COCCOCCn1nc2cc(N3CCCc4cc(C(=O)N5CCC(F)(F)CC5)cnc43)ccn2c1=O [Example 1-80]
7,< 10 nM,CN1Cc2cc(N3CCCc4cc(C(=O)N5CCC(F)(F)CC5)cnc43)ccc2C1=O [Example 1-81]
8,< 10 nM,COCCN1Cc2cc(N3CCCc4cc(C(=O)N5CCC(F)(F)CC5)cnc43)ccc2C1=O [Example 1-82]
9,< 10 nM,CCOCCN1Cc2cc(N3CCCc4cc(C(=O)N5CCC(F)(F)CC5)cnc43)ccc2C1=O [Example 1-83]
10,< 10 nM,CN1Cc2cc(N3CCCc4cc(C(=O)N5CCC(F)(F)CC5)cnc43)cnc2C1=O [Example 1-84]
11,< 10 nM,Cn1cnc2cc(N3CCCc4cc(C(=O)N5CCCCC5)cnc43)ccc2c1=O [Example 1-87]
12,< 10 nM,Cn1cnc2cc(N3CCCc4cc(C(=O)N5CCC(F)(F)CC5)cnc43)ccc2c1=O [Example 1-88]
13,< 10 nM,COC(=O)c1cc2ccc(N3CCOc4cc(C(=O)N5CCCCC5)cnc43)cc2n1C [Example 1-92]
14,< 10 nM,Cn1nc2cc(N3CC(C)(C)Oc4cc(C(=O)N5CCCCC5)cnc43)ccn2c1=O [Example 1-93]
15,< 10 nM,Cn1nc2cc(N3CCCc4cc(C(=O)N5CCCCC5)cnc43)ccn2c1=O [Example 1-94]
16,< 10 nM,C[C@H]1COc2cc(C(=O)N3CCCCC3)ccc2N(c2ccn3c(=O)n(C)nc3c2)C1 [Example 1-95]
17,< 10 nM,C[C@@H]1COc2cc(C(=O)N3CCCCC3)ccc2N(c2ccn3c(=O)n(C)nc3c2)C1 [Example 1-96]

row,IC50,Compound
1,< 10 nM,Cn1nc2cc(N3CCSc4cc(C(=O)N5CCCCC5)ccc43)ccn2c1=O [Example 1-97]
2,< 10 nM,Cn1nc2cc(N3CCCOc4cc(C(=O)N5CCCCC5)cnc43)ccn2c1=O [Example 1-99]
3,< 10 nM,COc1c(C(=O)N2CCCCC2)ccc2c1OCCN2c1ccn2c(=O)n(C)nc2c1 [Example 1-100]
4,< 10 nM,CN1Cc2cc(N3CCOc4cc(C(=O)N5CCCCC5)cnc43)cnc2C1=O [Example 1-101]
5,< 10 nM,CN1Cc2cc(N3CCOc4cc(C(=O)N5CCCCC5)cnc43)ncc2C1=O [Example 1-103]
6,< 10 nM,O=C(c1cnc2c(c1)OCCN2c1ccn2nnnc2c1)N1CCCCC1 [Example 1-104]
7,< 10 nM,O=C(c1cnc2c(c1)OCCN2c1ccn2cnnc2c1)N1CCCCC1 [Example 1-105]
8,< 10 nM,O=C(c1cnc2c(c1)OCCN2c1ccn2ncnc2c1)N1CCCCC1 [Example 1-106]
9,< 10 nM,Cn1nc2cc(N3CCCCc4cc(C(=O)N5CCCCC5)cnc43)ccn2c1=O [Example 1-107]
10,< 10 nM,Cn1nc2cc(N3CCc4cc(C(=O)N5CCCCC5)cnc43)ccn2c1=O [Example 1-109]
11,< 10 nM,Cn1nc2cc(N3CCOc4cc(SC5CCCCC5)cnc43)ccn2c1=O [Example 1-110]
12,< 10 nM,Cn1nc2cc(N3CCOc4cc(C(=O)C5CCCCC5)cnc43)ccn2c1=O [Example 1-111]
13,< 10 nM,Cn1nc2cc(N3CCCc4cc(C(=O)N5CCC[C@H](CF)C5)cnc43)ccn2c1=O [Example 1-112]
14,< 10 nM,CCn1nc2cc(N3CCCc4cc(C(=O)N5CCC[C@H](CF)C5)cnc43)ccn2c1=O [Example 1-113]
15,< 10 nM,COCn1nc2cc(N3CCCc4cc(C(=O)N5CCC[C@H](CF)C5)cnc43)ccn2c1=O [Example 1-114]
16,< 10 nM,CCOCn1nc2cc(N3CCCc4cc(C(=O)N5CCC[C@H](CF)C5)cnc43)ccn2c1=O [Example 1-115]
17,< 10 nM,COCCn1nc2cc(N3CCCc4cc(C(=O)N5CCC[C@H](CF)C5)cnc43)ccn2c1=O [Example 1-116]
